Patent publication US9409905B2, “Antibacterial compounds and methods for use” (PTC THERAPEUTICS, INC., priority 2011, dated 2016)
In brackets after ≈: the same amount, converted by molar mass. Where two headings read alike, the source gives them in different places.

Assays:
[1] = system: E. coli 25922; test: Antibacterial activity, microbroth dilution MIC (Table 1); assay type: cell-based, Escherichia coli
How it was run: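 Potency is reported as minimum inhibitory concentration in μg/mL, determined by broth microdilution as the lowest level of compound that stops growth visible to the eye.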

[2] = system: Pseudomonas aeruginosa (P. aeruginosa) 27853; test: Antibacterial activity, MIC (Table 5); assay type: cell-based
How it was run: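 Values are MICs in μg/mL, read as the lowest concentration at which no growth is visible by eye. They were determined by a microbroth dilution method.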

[3] = system: Staphylococcus aureus (S. aureus) 29213; test: Antibacterial activity, microbroth dilution MIC (Table 1); assay type: cell-based
How it was run: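 MIC (μg/mL) is taken as the lowest concentration with no macroscopically visible growth. Strains tested by microbroth dilution: Gram-positive S. aureus 29213, control Gram-negative E. coli 25922, and super-sensitive E. coli BAS849.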

[4] = system: Escherichia coli (E. coli) BAS849; test: as above; assay type: cell-based
How it was run: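 Growth inhibition by microbroth dilution. MIC = lowest μg/mL with no visible growth. Strain 25922 is the control Gram-negative; BAS849 is hypersensitive.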

[5] = system: A. baumannii MXX2240; test: Antibacterial activity, MIC, resistant strain (Table 4); assay type: cell-based; settings: Acinetobacter baumannii
How it was run: (§1)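 Values are MICs in μg/mL, read as the lowest compound concentration at which no growth is visible by eye. They come from a microbroth dilution method.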

[6] = system: K. pneumoniae MXX1232; test: as above; assay type: cell-based; settings: Klebsiella pneumoniae
How it was run: as §1

[7] = system: Klebsiella pneumoniae (K. pneumoniae) 35657; test: Antibacterial activity, MIC (Table 4); assay type: cell-based
How it was run: as §1

[8] = system: Acinetobacter baumannii (A. baumannii) BAA747; test: Antibacterial activity, MIC (Table 4); assay type: cell-based
How it was run: as §1

[9] = system: E. coli LZ3111; test: Antibacterial activity, MIC, quinolone resistant strain (Table 2); assay type: cell-based; settings: Escherichia coli, LZ3111, read-out: MIC LZ3111
How it was run: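 MIC values (μg/mL) came from a microbroth dilution assay, scored as the lowest drug concentration at which no growth was visible by eye.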

[10] = Escherichia coli, microbroth dilution, control Gram-negative E. coli 25922 strain, read-out: MIC, 25922
[11] = P. aeruginosa 27853, read-out: MIC, 27853
[12] = microbroth dilution, Gram-positive S. aureus 29213, read-out: MIC, 29213
[13] = microbroth dilution, super sensitive Gram-negative E. coli BAS849, read-out: MIC, BAS849
[14] = MXX2240, resistant A. baumannii MMX2240, multi-drug resistant clinical isolate, read-out: MIC, MMX2240
[15] = MXX1232, resistant K. pneumoniae MMX1232, multi-drug resistant clinical isolate, read-out: MIC, MMX1232
[16] = K. pneumoniae 35657, read-out: MIC, 35657
[17] = A. baumannii BAA747, read-out: MIC, BAA747

Row | Structure (SMILES) | MIC [1, 10] | MIC [2, 11] | MIC [3, 12] | MIC [4, 13] | MIC [5, 14] | MIC [6, 15] | MIC [7, 16] | MIC [8, 17] | MIC [9] | MIC ([1]; Escherichia coli, 25922, read-out: MIC, 25922) | MIC ([2]; read-out: MIC, 27853) | MIC ([3]; read-out: MIC, 29213) | MIC ([4]; read-out: MIC, BAS849) | MIC ([5]; MXX2240, read-out: MIC, MMX2240) | MIC ([6]; MXX1232, read-out: MIC, MMX1232) | MIC ([7]; read-out: MIC, 35657) | MIC ([8]; BAA747, read-out: MIC, BAA747)
1 | CCc1c(-c2ccc3c(c2)cc2n3CC(N)C2)[nH]c(=O)c(C(=O)O)c1O.Cl (stereo not drawn) [Cpd 413, 6-(2-amino-2,3-dihydro-1H-pyrrolo[1,2-a]indol-7-yl)-5-ethyl-4-hydroxy-2-oxo-1,2-dihydropyridine-3-carboxylic acid hydrochloride] | < 1 µg/mL | 12.5 to 150 µg/mL | 12.5 to 150 µg/mL | < 1 µg/mL | 12.5 to 150 µg/mL | 12.5 to 150 µg/mL | < 1 µg/mL | 3.5 to 12.5 µg/mL | 3.5 to 12.5 µg/mL |  |  |  |  |  |  |  | 
2 | CCc1c(-c2ccc3c4c([nH]c3c2)CN(CC)CC4)[nH]c(=O)c(C(=O)O)c1O [Cpd 447, 5-ethyl-6-(2-ethyl-2,3,4,9-tetrahydro-1H-pyrido[3,4-b]indol-7-yl)-4-hydroxy-2-oxo-1,2-dihydropyridine-3-carboxylic acid] |  |  |  |  |  |  |  |  | 3.5 to 12.5 µg/mL (≈ 9.18 to 32.8 µM) | < 1 µg/mL | 12.5 to 150 µg/mL (≈ 32.8 to 393 µM) | 12.5 to 150 µg/mL (≈ 32.8 to 393 µM) | < 1 µg/mL | 12.5 to 150 µg/mL (≈ 32.8 to 393 µM) | 12.5 to 150 µg/mL (≈ 32.8 to 393 µM) | < 1 µg/mL | 3.5 to 12.5 µg/mL (≈ 9.18 to 32.8 µM)
3 | Cc1c(-c2ccc3c(c2)cc(CNC(C)(C)C)n3C)[nH]c(=O)c(C(=O)O)c1O [Cpd 351, 6-(2-((tert-butylamino)methyl)-1-methyl-1H-indol-5-yl)-4-hydroxy-5-methyl-2-oxo-1,2-dihydropyridine-3-carboxylic acid] | 1 to 3.5 µg/mL (≈ 2.61 to 9.13 µM) | 12.5 to 150 µg/mL (≈ 32.6 to 391 µM) | 12.5 to 150 µg/mL (≈ 32.6 to 391 µM) | < 1 µg/mL | 1 to 3.5 µg/mL (≈ 2.61 to 9.13 µM) | 12.5 to 150 µg/mL (≈ 32.6 to 391 µM) | 1 to 3.5 µg/mL (≈ 2.61 to 9.13 µM) | < 1 µg/mL | 3.5 to 12.5 µg/mL (≈ 9.13 to 32.6 µM) |  |  |  |  |  |  |  | 
4 | Cc1c(-c2ccc3c(cnn3C)c2)[nH]c(=O)c(C(=O)O)c1O [Cpd 394, 4-hydroxy-5-methyl-6-(1-methyl-1H-indazol-5-yl)-2-oxo-1,2-dihydropyridine-3-carboxylic acid] | 12.5 to 150 µg/mL (≈ 41.8 to 501 µM) | 12.5 to 150 µg/mL (≈ 41.8 to 501 µM) | 12.5 to 150 µg/mL (≈ 41.8 to 501 µM) | 3.5 to 12.5 µg/mL (≈ 11.7 to 41.8 µM) | < 1 µg/mL | 12.5 to 150 µg/mL (≈ 41.8 to 501 µM) | 12.5 to 150 µg/mL (≈ 41.8 to 501 µM) | 12.5 to 150 µg/mL (≈ 41.8 to 501 µM) | < 1 µg/mL |  |  |  |  |  |  |  | 
5 | Cc1c(-c2ccc3cn(C)nc3c2)[nH]c(=O)c(C(=O)O)c1O [Cpd 397, 4-hydroxy-5-methyl-6-(2-methyl-2H-indazol-6-yl)-2-oxo-1,2-dihydropyridine-3-carboxylic acid] | 12.5 to 150 µg/mL (≈ 41.8 to 501 µM) | 12.5 to 150 µg/mL (≈ 41.8 to 501 µM) | 12.5 to 150 µg/mL (≈ 41.8 to 501 µM) | 12.5 to 150 µg/mL (≈ 41.8 to 501 µM) | 3.5 to 12.5 µg/mL (≈ 11.7 to 41.8 µM) | 12.5 to 150 µg/mL (≈ 41.8 to 501 µM) | 12.5 to 150 µg/mL (≈ 41.8 to 501 µM) | 12.5 to 150 µg/mL (≈ 41.8 to 501 µM) | 1 to 3.5 µg/mL (≈ 3.34 to 11.7 µM) |  |  |  |  |  |  |  | 
6 | CCc1c(-c2cc3cc(F)ccc3[nH]2)[nH]c(=O)c(C(=O)O)c1O [Cpd 380, 5-ethyl-6-(5-fluoro-1H-indol-2-yl)-4-hydroxy-2-oxo-1,2-dihydropyridine-3-carboxylic acid] | 12.5 to 150 µg/mL (≈ 39.5 to 474 µM) | 12.5 to 150 µg/mL (≈ 39.5 to 474 µM) | 12.5 to 150 µg/mL (≈ 39.5 to 474 µM) | 3.5 to 12.5 µg/mL (≈ 11.1 to 39.5 µM) | 12.5 to 150 µg/mL (≈ 39.5 to 474 µM) | 12.5 to 150 µg/mL (≈ 39.5 to 474 µM) | 12.5 to 150 µg/mL (≈ 39.5 to 474 µM) | 12.5 to 150 µg/mL (≈ 39.5 to 474 µM) | 12.5 to 150 µg/mL (≈ 39.5 to 474 µM) |  |  |  |  |  |  |  | 
7 | CCc1ccc2cc(-c3[nH]c(=O)c(C(=O)O)c(O)c3CC)n(C)c2c1 [Cpd 408, 5-ethyl-6-(6-ethyl-1-methyl-1H-indol-2-yl)-4-hydroxy-2-oxo-1,2-dihydropyridine-3-carboxylic acid] | 12.5 to 150 µg/mL (≈ 36.7 to 441 µM) | 12.5 to 150 µg/mL (≈ 36.7 to 441 µM) | 1 to 3.5 µg/mL (≈ 2.94 to 10.3 µM) | 1 to 3.5 µg/mL (≈ 2.94 to 10.3 µM) | 12.5 to 150 µg/mL (≈ 36.7 to 441 µM) | 12.5 to 150 µg/mL (≈ 36.7 to 441 µM) | 12.5 to 150 µg/mL (≈ 36.7 to 441 µM) | 12.5 to 150 µg/mL (≈ 36.7 to 441 µM) | 12.5 to 150 µg/mL (≈ 36.7 to 441 µM) |  |  |  |  |  |  |  | 
8 | CCc1c(-c2ccc3cc(C)cn3c2)[nH]c(=O)c(C(=O)O)c1O [Cpd 429, 5-ethyl-4-hydroxy-6-(2-methylindolizin-6-yl)-2-oxo-1,2-dihydropyridine-3-carboxylic acid] | 12.5 to 150 µg/mL (≈ 40 to 480 µM) | 12.5 to 150 µg/mL (≈ 40 to 480 µM) | 12.5 to 150 µg/mL (≈ 40 to 480 µM) | 12.5 to 150 µg/mL (≈ 40 to 480 µM) | 12.5 to 150 µg/mL (≈ 40 to 480 µM) | 12.5 to 150 µg/mL (≈ 40 to 480 µM) | 12.5 to 150 µg/mL (≈ 40 to 480 µM) | 12.5 to 150 µg/mL (≈ 40 to 480 µM) | 12.5 to 150 µg/mL (≈ 40 to 480 µM) |  |  |  |  |  |  |  | 
9 | COc1c(-c2ccc3c(ccn3C)c2)[nH]c(=O)c(C(=O)O)c1O [Cpd 377, 4-hydroxy-5-methoxy-6-(1-methyl-1H-indol-5-yl)-2-oxo-1,2-dihydropyridine-3-carboxylic acid] | 12.5 to 150 µg/mL (≈ 39.8 to 477 µM) | 12.5 to 150 µg/mL (≈ 39.8 to 477 µM) | 12.5 to 150 µg/mL (≈ 39.8 to 477 µM) | < 1 µg/mL | 3.5 to 12.5 µg/mL (≈ 11.1 to 39.8 µM) | 12.5 to 150 µg/mL (≈ 39.8 to 477 µM) | 12.5 to 150 µg/mL (≈ 39.8 to 477 µM) | 12.5 to 150 µg/mL (≈ 39.8 to 477 µM) | 3.5 to 12.5 µg/mL (≈ 11.1 to 39.8 µM) |  |  |  |  |  |  |  | 
